Source: patent US20070031520A1, “Method of using ajoene as alcohol dehydrogenase inhibitor, composition for removing hangover comprising ajoene and method of preparing the same” (priority 2005, published 2007)

Tested on: human ADH
Test: cloned human ADH assay (NADH absorbance at 340 nm)
Assay type: biochemical
Details: for ADH inhibitory activity (%): 0.1 M glycine buffer pH 10, 2.4 mM NAD+, 33 mM ethanol
Protocol: ADH inhibitory activity of ajoene obtained in Example 1 was examined by means of a cloned human ADH assay wherein human ADH is treated with ajoene at different concentrations, and the results are shown in Table 1 below. Here, the ADH assay employed 0.1 M glycine buffer (pH 10) as a reaction buffer and 2.4 mM NAD^+ and 33 mM ethanol in a subtrate. ADH inhibitory activity was determined by measuring the absorbance of NADH at 340 nm using a microplate reader.

SMILES: C=CCSSC=CC[S+]([O-])CC=C (stereo not shown) [ajoene, 4,5,9-trithiadodeca-1,6,11-triene-9-oxide]
- ADH inhibitory activity (%) (ajoene 0.1 μg/ml): 0%
- ADH inhibitory activity (%) (ajoene 0.9 μg/ml): 50%
- ADH inhibitory activity (%) (ajoene 1 μg/ml): 60%
- ADH inhibitory activity (%) (ajoene 10 μg/ml): 85%
- ADH inhibitory activity (%) (ajoene 50 μg/ml): 100%
- ADH inhibitory activity (%) (ajoene 100 μg/ml): 100%
- inhibitory concentration of 50% (IC50) on ADH activity (cloned human ADH, from Table 1): 0.9 µg/mL
